Experimental data taken from patent publication US6873914B2, “Methods and systems for analyzing complex biological systems” (Icoria, Inc., priority 2001, dated 2005).

Tests used:
[1] = tested on: Saccharomyces cerevisiae wild type strain BY4743; experiment: AF1 combined gene expression and metabolite data mapped to KEGG reactions and pathways, cluster analysis; assay type: cell-based
Description: In AF1, two different technologies were utilized: gene expression analysis (for examination of mRNA expression) and metabolite analysis. […] As noted previously, existing metabolic databases may be helpful in practicing the methods and systems of the present invention, but many databases include limitations that make their use in data analysis and pathway mapping less than straightforward. […] This caveat to KEGG makes it difficult to pinpoint the correct pathway when attempting to link a gene to a specific pathway. […] The pathway score indicates how meaningful the mapping is, or how likely it is to be correctly indicative of the pathway involved in the perturbation under examination. […] Degree of perturbation can be calculated, for example, based on a number of standard deviations from a norm, and included in an equation such as the one shown above, so that not only the number of pathways is taken into account, but also accounts for the amount of gene transcript or compound present as compared to a control. […] KEGG links 676 compounds measured in AF1 to a total of 92 pathways. Of the 676 compounds under consideration, 77 were detected in the AF1 samples. […]

[2] = tested on: Saccharomyces cerevisiae wild type strain BY4743; experiment: AF1 metabolite analysis (GC-MS, LC-MS) of yeast cells treated with antifungal drugs; assay type: cell-based

Structure (SMILES): C[C@@H]1[C@H](O)[C@@H](C)/C=C/C=C/C=C/C=C/C=C/C=C/C=C/[C@H](O[C@@H]2O[C@H](C)[C@@H](O)[C@H](N)[C@@H]2O)C[C@@H]2O[C@](O)(C[C@@H](O)C[C@@H](O)[C@H](O)CC[C@@H](O)C[C@@H](O)CC(=O)O[C@H]1C)C[C@H](O)[C@H]2C(=O)O [Amphoteracin B]
- # Reactions Having an Enzyme and at Least One Compound Perturbed [1]: 54
- squalene and lanosterol in treated yeast cells ([2]; AF1, 2×MIC, two hours): not
- Fold Change: campesterol ([2]; GC): 0
- Fold Change: desmosterol ([2]; GC): 0
- Fold Change: octadecanoic acid ([2]; GC): 0.21
- Fold Change: abscisic acid ([2]; LC): 0
- Fold Change: adenosine ([2]; LC): 0
- Fold Change: riboflavin ([2]; LC): 0
- Fold Change: 4-methylcatechol ([2]; nLC): 0
- Fold Change: 5hydroxyLtryptophan ([2]; nLC): 0
- Fold Change: 6-benzylaminopurine ([2]; nLC): 0
- Fold Change: NacetylDglucosamine ([2]; nLC): 0
- Fold Change: NacetylLornithine ([2]; nLC): 0
- Fold Change: abscisic acid ([2]; nLC): 0
- Fold Change: adenine ([2]; nLC): 0
- Fold Change: adenosine ([2]; nLC): 0
- Fold Change: anthranilic acid ([2]; nLC): 0
- Fold Change: argininosuccinate ([2]; nLC): 0
- Fold Change: benzoic acid ([2]; nLC): 0
- Fold Change: catechol ([2]; nLC): 0
- Fold Change: cinnamic acid ([2]; nLC): 0
- Fold Change: citricanoic/itaconi ([2]; nLC): 0
- Fold Change: coumaric acid ([2]; nLC): 0
- Fold Change: cytosine ([2]; nLC): 0
- Fold Change: diaminopimelic acid ([2]; nLC): 0
- Fold Change: dihydrofolic acid ([2]; nLC): 0
- Fold Change: estrone ([2]; nLC): 0
- Fold Change: farnesol ([2]; nLC): 0
- Fold Change: folic acid ([2]; nLC): 0
- Fold Change: gibberellic ([2]; nLC): 0
- Fold Change: guanine ([2]; nLC): 0
- Fold Change: histidine ([2]; nLC): 0
- Fold Change: homogentisic/uric ([2]; nLC): 0
- Fold Change: hydrocortisone ([2]; nLC): 0
- Fold Change: indole3pyruvic acid ([2]; nLC): 0
- Fold Change: jasmonic acid ([2]; nLC): 0
- Fold Change: kinetin ([2]; nLC): 0
- Fold Change: luteolin ([2]; nLC): 0
- Fold Change: malonic acid ([2]; nLC): 0
- Fold Change: methionine ([2]; nLC): 0
- Fold Change: phenylpyruvic acid ([2]; nLC): 0
- Fold Change: phosphoenolpyruvate ([2]; nLC): 0
- Fold Change: pinitol ([2]; nLC): 0
- Fold Change: porphobilinogen ([2]; nLC): 0
- Fold Change: retinoic acid ([2]; nLC): 0
- Fold Change: salicylic/HObenzoic ([2]; nLC): 0
- Fold Change: shikimic acid ([2]; nLC): 0
- Fold Change: sinapinic acid ([2]; nLC): 0
- Fold Change: thymine ([2]; nLC): 0
- Fold Change: 4-aminobenzoic acid ([2]; pLC): 0
- Fold Change: 4-methylcatechol ([2]; pLC): 0
- Fold Change: 5hydroxyLtryptophan ([2]; pLC): 0
- Fold Change: 6benzylaminopurine ([2]; pLC): 0
- Fold Change: NacetylDglucosamine ([2]; pLC): 0
- Fold Change: NacetylLglutamate ([2]; pLC): 0
- Fold Change: allantoic acid ([2]; pLC): 0
- Fold Change: anthranilic acid ([2]; pLC): 0
- Fold Change: argininosuccinate ([2]; pLC): 0
- Fold Change: biotin ([2]; pLC): 0
- Fold Change: caffeine ([2]; pLC): 0
- Fold Change: citric acid TME ([2]; pLC): 0
- Fold Change: cytidine ([2]; pLC): 0
- Fold Change: cytosine ([2]; pLC): 0
- Fold Change: diaminopimelic acid ([2]; pLC): 0
- Fold Change: dihydrofolic acid ([2]; pLC): 0
- Fold Change: dipicolinic acid ([2]; pLC): 0
- Fold Change: folic acid ([2]; pLC): 0
- Fold Change: glucosamine ([2]; pLC): 0
- Fold Change: glucosamine6PO4 ([2]; pLC): 0
- Fold Change: histidine ([2]; pLC): 0
- Fold Change: hydrocortisone ([2]; pLC): 0
- Fold Change: itaconic acid dimes ([2]; pLC): 0
- Fold Change: kinetin ([2]; pLC): 0
- Fold Change: luteolin ([2]; pLC): 0
- Fold Change: niacinamide ([2]; pLC): 0
- Fold Change: nopaline ([2]; pLC): 0
- Fold Change: phosphoenolpyruvate ([2]; pLC): 0
- Fold Change: progesterone ([2]; pLC): 0
- Fold Change: sugar-phosphate ([2]; pLC): 0
- Fold Change: thiamine ([2]; pLC): 0
- Fold Change: thymine ([2]; pLC): 0
- Fold Change: tryptophan ([2]; pLC): 0
